{"source": "patent US20260335468A1", "about": "“MOLECULAR RADIOAFTERGLOW PROBES FOR CANCER RADIODYNAMIC THERANOSTICS” (NANYANG TECHNOLOGICAL UNIVERSITY, priority 2023, published 2026)", "key": {"[1]": {"test_system": "U87MG subcutaneous tumor", "assay": "X-ray-induced afterglow in U87MG subcutaneous tumor-bearing mice", "type": "in vivo, Balb/c nude mice", "conditions": "local injection", "experimental": "For in vivo RAI by IDPASu, subcutaneous U87-tumour-bearing mice were intratumorally injected with IDPASu(100 μM, […]) solubilized with P-cyclodextrin (100 μM). Each group has three mice. At different post-injection timepoints (0, 0.5, 1.0, 2.0, 4.0, 6.0, 8.0, 12.0, 16.0 and 24.0 h), the tumours were irradiated with X-rays (5 mGy, 250 μGy s^−1 for 20 s), followed by radio afterglow detection using the IVIS imaging system under the bioluminescence mode with an open filter and acquisition time of 120 s. Tumour-free areas were protected by a 3.4-mm-thick lead shield with a notch. […] Radio afterglow signals from brain tumours were recorded with the IVIS imaging system under the bioluminescence mode with an open filter and acquisition time of 120 s. […] The tumour sizes were calculated as per the above-mentioned equation, showing ~0 mm^3 for 1 day post-implantation, 6 mm^3 (tumour diameter, 2.3 mm) for 5 days post-implantation, 22 mm^3 for 10 days post-implantation, 43 mm^3 for 20 days post-implantation and 77 mm^3 for 30 days post-implantation. At 15 min post-intraperitoneal injection of aqueous d-luciferin sodium salt (500 μmol kg^−1) solution into mice with different tumour sizes, the bioluminescence signals from the tumour sites were recorded with the IVIS imaging system under the bioluminescence mode with an open filter and automatic acquisition time. […]"}, "[2]": {"assay": "Afterglow through chicken breast tissue (tissue penetration depth study)", "type": "physicochemical", "experimental": "IDPASu (100 M, 100 l) solution in a round cap with a diameter of 1 cm was prepared and placed under the chicken breast tissue with different thicknesses (0, 1.0, 2.5, 5.0, 10.0 and 15.0 cm). To avoid the influence of afterglow intensity differences on tissue penetration, the X-ray source (Moxtek, Inc.) and xenon lamp (PLS-SEX300D, Beijing Perfectlight Technology Co., Ltd.) were optimized to ensure that all the samples at 0 cm (without coverage) received the same dose of X-rays (5 mGy, 250 μGy s^−1 for 20 s) or light (180 mW cm^−2 for 20 s) and thus the same afterglow intensity. After the cessation of irradiation, radio afterglow or photoafterglow was detected with or without the chicken breast tissues using the IVIS bioluminescence mode with an open filter and acquisition time of 120 s.\nTo induce afterglow, IDPASu was irradiated with X-ray or light through chicken breast tissues before signal detection (FIGS. 11a-b). To eliminate the influence of intensity difference on tissue penetration, X-ray and light irradiation were optimized to ensure similar intensity without tissue coverage. […] Radio afterglow of IDPASu was inducible and detectable even through ~15 cm tissue, showing ~4.2-fold higher signal than that of IDPASu without X-ray irradiation and tissue (FIG. 11d)."}, "[3]": {"assay": "·OH and other ROS detection (HPF) upon X-ray irradiation", "type": "physicochemical", "experimental": "To study other ROS generation, fluorescence sensors DHR123 (for O2·^− detection) and HPF (for ·OH detection) were used. For O2·^− detection, DHR123 (10 PM) was added to a solution of IDPASu (10 M) in PBS (0.01 M pH 7.4, 50% DMSO), followed by X-ray irradiation at different doses of 5 mGy (250 μGy s^−1 for 20 s) and 2 Gy (100 mGy s^1 for 20 s). The fluorescence changes in DHR123 were recorded at λex of 505 nm and λem of 534 nm. For ·OH detection, HPF ([…]) was added in a solution of IDPASu (10 M) in PBS (0.01 M, pH 7.4, 50% DMF), followed by X-ray irradiation at different doses, namely, 5 mGy (250 μGy s^−1 for 20 s) and 2 Gy (100 mGy s^−1 for 20 s). The fluorescence changes in HPF were collected at ex of 450 nm and λem of 515 nm. The ROS production was calculated by the corresponding standard curve."}}, "data": [{"smiles": "COC(=C1C2CC3CC(C2)CC1C3)c1cc(O)c(I)cc1/C=C/C1=CC(=C(C#N)C#N)c2ccccc2S1", "note": "[IDPASu]", "values": [{"measurement": "Intensity per dose per mouse", "setting": "[1]", "result": "1.27 × 10^6 (p/s/cm2/sr)/(μg)"}, {"measurement": "radio afterglow signal through ~15 cm tissue versus IDPASu without X-ray irradiation and tissue", "setting": "[2]; 15 cm chicken breast tissue", "result": "~ 4.2 fold"}, {"measurement": "penetration depth, Detection with tissue (induction without tissue)", "setting": "[2]; X-ray 0.005 Gy", "result": 15, "unit": "cm"}, {"measurement": "penetration depth, Induction and detection through tissue", "setting": "[2]; X-ray 0.005 Gy", "result": 5, "unit": "cm"}, {"measurement": "radio afterglow intensity at tissue depth of 1 cm", "setting": "[2]; induction by X-ray through tissue, detection without tissue", "result": "~ 1.79×10^6 photons s^−1 cm^−2 sr^−1"}, {"measurement": "photoafterglow intensity at tissue depth of 1 cm", "setting": "[2]; induction by light through tissue, detection without tissue", "result": "7.20×10^4 photons s^−1 cm^−2 sr^−1"}, {"measurement": "HPF+IDPASu (+X-ray) versus HPF+IDPASu (−X-ray), ·OH", "setting": "[3]; 250 μGy s^−1 or 100 mGy s^−1 for 20 s", "result": "not significant"}, {"measurement": "other ROS generation", "setting": "[3]; X-ray irradiation", "result": "undetectable"}]}]}
